# Test results reported in patent publication US20240168041A1, “SYSTEMS AND METHODS ENABLING PH[…] TESTING OF PATCH-CLAMP SAMPLES” (priority 2021, published 2024).
# “And” between values parts separate entries of the source, which are not always exact repeats. Equal entries are not always repeated. Where two headings read alike, the source gives them in different places.
# Key:
# [1] = target: T1, GABAAR (α1β2γ2 L) in stably transfected HEK cells (Mus musculus, UniProt P22723+P62812+P63137); assay: Rapid agonist application patch-clamp recording of GABAAR responses (patcherBotPharma); assay type: cell-based; conditions: rapid application of 1 mM GABA for 1 sec
# T1 construct: expressed in transfected cells; host or cells: HEK 293 cells
# T1 sequence (P62812 28-455): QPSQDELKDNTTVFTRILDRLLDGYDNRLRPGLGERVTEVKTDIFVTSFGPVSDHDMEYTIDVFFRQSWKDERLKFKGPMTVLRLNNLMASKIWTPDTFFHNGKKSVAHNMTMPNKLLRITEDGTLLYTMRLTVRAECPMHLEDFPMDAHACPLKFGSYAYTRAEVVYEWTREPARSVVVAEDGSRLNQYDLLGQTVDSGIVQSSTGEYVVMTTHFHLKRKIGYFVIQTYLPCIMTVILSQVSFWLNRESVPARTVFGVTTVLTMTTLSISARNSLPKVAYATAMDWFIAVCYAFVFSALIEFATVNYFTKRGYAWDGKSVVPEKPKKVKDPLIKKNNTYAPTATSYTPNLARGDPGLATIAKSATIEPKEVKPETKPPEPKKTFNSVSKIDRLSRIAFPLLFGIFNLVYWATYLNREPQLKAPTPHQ
# T1 sequence (P63137 25-512 limits assumed): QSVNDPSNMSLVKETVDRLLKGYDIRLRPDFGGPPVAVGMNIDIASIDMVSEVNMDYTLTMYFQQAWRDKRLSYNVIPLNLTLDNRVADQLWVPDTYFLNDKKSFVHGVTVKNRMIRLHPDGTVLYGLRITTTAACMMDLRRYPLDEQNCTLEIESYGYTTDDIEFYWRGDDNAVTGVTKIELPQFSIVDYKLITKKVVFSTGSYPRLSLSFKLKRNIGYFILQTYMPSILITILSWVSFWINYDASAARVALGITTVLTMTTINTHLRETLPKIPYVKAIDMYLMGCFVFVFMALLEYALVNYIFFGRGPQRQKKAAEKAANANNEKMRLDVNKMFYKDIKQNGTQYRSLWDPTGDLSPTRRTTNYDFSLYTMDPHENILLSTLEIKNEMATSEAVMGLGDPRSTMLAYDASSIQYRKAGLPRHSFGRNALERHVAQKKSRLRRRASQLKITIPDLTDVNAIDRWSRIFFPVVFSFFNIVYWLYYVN
# T1 sequence (P22723 39-474): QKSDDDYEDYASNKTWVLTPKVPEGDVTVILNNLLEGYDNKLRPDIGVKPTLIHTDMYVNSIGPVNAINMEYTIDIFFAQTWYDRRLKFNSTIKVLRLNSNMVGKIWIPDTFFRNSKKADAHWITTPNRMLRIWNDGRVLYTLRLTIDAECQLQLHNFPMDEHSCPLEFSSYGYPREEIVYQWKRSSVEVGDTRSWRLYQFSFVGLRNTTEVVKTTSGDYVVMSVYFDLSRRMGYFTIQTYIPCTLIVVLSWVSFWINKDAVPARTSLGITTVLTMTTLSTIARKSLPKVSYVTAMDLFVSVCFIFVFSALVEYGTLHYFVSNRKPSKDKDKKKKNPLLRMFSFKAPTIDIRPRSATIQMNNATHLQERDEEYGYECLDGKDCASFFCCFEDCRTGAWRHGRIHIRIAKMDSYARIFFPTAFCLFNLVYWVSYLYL
# Protocol: (§1) Recordings are from a lifted whole cell (left) and an outside-out patch using a 4 MΩ electrode (right), at −60 mV in 0 mM Mg^2+. […] Recordings are from a lifted whole cell (left, 1 s application) and an outside-out patch (right, 5 ms application).
# (§2) cDNAs for mouse Gabra1, Gabrb2, and the long form of Gabrg2 were subcloned into the pAC156 plasmid, a generous gift from Albert Cheng. The cDNAs were driven by an EF1alpha promoter. A PGK promoter-driven puromycin resistance cassette was also present in pAC156; both cassettes were flanked by piggybac transposon arms. All three plasmids were co-transfected with the mPB piggybac transposase into HEK 293 cells, selected by puromycin, and sorted into single cells. Clones were assayed for Gabra1, Gabrb2, and Gabrg2 expression by immunofluorescence, and one clone was expanded for further study and use in this description herein. Trypsin was used to dissociate the cells and plated on the same coverslips, as mentioned above, 24-72 hours before experimentation (shorter time and less PDL for lifted cell, and the inverse for excised patches).
# (§3) Whole-cell voltage-clamp recordings were performed with thin-walled borosilicate glass electrodes (3-6 MΩ, TW150E-4, World Precision Instruments) filled with solution containing (in mM) 110 Cs-gluconate, 30 CsCl, 5 HEPES, 4 NaCl, 0.5 CaCl2, 2 MgCl2, 5 BAPTA, 2 NaATP, 0.3 NaGTP (pH 7.35). The extracellular recording solution contained (in mM) 150 NaCl, 10 HEPES, 3 KCl, 0.5 CaCl2, 1 MgCl2, and 0.01 EDTA (pH 7.4). Whole cell recording from primary cortical neurons (examples showing alternative experiment paradigm in the supplemental) were obtained utilizing an internal solution, containing (in mM) 115 K-gluconate, 20 KCl, 10 HEPES, 2 Mg2ATP, 0.3 NaGTP, and 10 Na2Phosphocreatine (pH 7.35), and external solution stated above but with 1 mM CaCl2. The electrode cleaning solution (2% Tergazyme in water) was made fresh daily. Cleaned electrodes were washed in appropriate internal solution. All solutions were filtered (0.45 μm or 0.22 μm). Responses were recorded using a Multiclamp 700B (Molecular Devices), filtered at 10 kHz (−3 dB), and digitized at 20 kHz.
# (§4) Whole-cell rapid solution exchange experiments were analyzed using custom algorithms (Matlab, Mathworks). The desensitization and deactivation time courses were fitted by exponential functions based on receptor type. For NMDAR desensitization and GABAAR deactivation, they were fit by one exponential function,
# In this experimental run, the patcherBotPharma was programmed to collect four-phase recordings. During each phase, five technical replicate sweeps were collected, a 10 sec sweep with agonist applied for 0.5 sec. Following each set of recordings, the patch was blown off with high pressure and the open-tip exchange time was determined to validate the electrode positioning.
# [2] = target: T2, GABAAR in stably expressing HEK cells (Mus musculus, UniProt P22723+P62812+P63137); assay: cell-based
# T2 construct: expressed in transfected cells; host or cells: HEK 293 cells
# T2 sequence (P62812 28-455): as the sequence (P62812 28-455) above
# T2 sequence (P63137 25-512 limits assumed): as the sequence (P63137 25-512 limits assumed) above
# T2 sequence (P22723 39-474): as the sequence (P22723 39-474) above
# From the text: FIGS. 5A through 5D provides various steps system 500 can perform to achieve a time-constant concentration response of deactivation of a cell receptor exposed to a drug. […] FIGS. 5A through 5D the individual steps in a flowchart illustrating the patcherBotPharma operation, timing, and success rate. After the one-time calibration and cell selection step 502, system 500 loops through and serially records from the selected cells in steps 504 through 514. Quality control measures are in place at steps 506, 508a, 508b, and 510 to terminate the current experiment and continue to the next iteration, as shown in FIG. 5A. System 500 can perform calibration and cell selection 502 manually such that the user selects one or more cells within a biological sample. In some instances, calibration and cell selection 502 can be performed automatically. For instance, calibration can be pre-programed and stored in memory 66 of controller 200. Alternatively, or in addition thereto, calibration can be automatically sensed by a combination of the manipulator assembly 120 and automated control of a microscope.
# After quality control measures verify an appropriate seal between the pipette tip 110 and the cell target, system 500 can initiate the experimental protocol at step 512. […] Each phase of each experiment would start with the valves changing to the next set to be tested, with a wait step to allow for the solutions to be primed, followed by the collection of 10 replicates of the intended jump protocol.
# as §2, §3
# Whole-cell rapid solution exchange experiments were analyzed using custom algorithms (Matlab, Mathworks). The desensitization and deactivation time courses were fitted by exponential functions based on receptor type.
# [3] = target: T3, NMDAR (GluN1/GluN2A) in transiently transfected HEK cells (Rattus norvegicus, UniProt P35439+Q00959); assay: Rapid agonist application patch-clamp recording of NMDAR responses (patcherBotPharma); assay type: cell-based; conditions: rapid application of 1 mM Glutamate for 1 sec; −40 mV
# T3 construct: expressed in transfected cells; host or cells: HEK-293 cells (CRL 1573, ATCC); calcium phosphate transient transfection with GFP co-transfected
# T3 sequence (Q00959 23-1464, other chains not shown): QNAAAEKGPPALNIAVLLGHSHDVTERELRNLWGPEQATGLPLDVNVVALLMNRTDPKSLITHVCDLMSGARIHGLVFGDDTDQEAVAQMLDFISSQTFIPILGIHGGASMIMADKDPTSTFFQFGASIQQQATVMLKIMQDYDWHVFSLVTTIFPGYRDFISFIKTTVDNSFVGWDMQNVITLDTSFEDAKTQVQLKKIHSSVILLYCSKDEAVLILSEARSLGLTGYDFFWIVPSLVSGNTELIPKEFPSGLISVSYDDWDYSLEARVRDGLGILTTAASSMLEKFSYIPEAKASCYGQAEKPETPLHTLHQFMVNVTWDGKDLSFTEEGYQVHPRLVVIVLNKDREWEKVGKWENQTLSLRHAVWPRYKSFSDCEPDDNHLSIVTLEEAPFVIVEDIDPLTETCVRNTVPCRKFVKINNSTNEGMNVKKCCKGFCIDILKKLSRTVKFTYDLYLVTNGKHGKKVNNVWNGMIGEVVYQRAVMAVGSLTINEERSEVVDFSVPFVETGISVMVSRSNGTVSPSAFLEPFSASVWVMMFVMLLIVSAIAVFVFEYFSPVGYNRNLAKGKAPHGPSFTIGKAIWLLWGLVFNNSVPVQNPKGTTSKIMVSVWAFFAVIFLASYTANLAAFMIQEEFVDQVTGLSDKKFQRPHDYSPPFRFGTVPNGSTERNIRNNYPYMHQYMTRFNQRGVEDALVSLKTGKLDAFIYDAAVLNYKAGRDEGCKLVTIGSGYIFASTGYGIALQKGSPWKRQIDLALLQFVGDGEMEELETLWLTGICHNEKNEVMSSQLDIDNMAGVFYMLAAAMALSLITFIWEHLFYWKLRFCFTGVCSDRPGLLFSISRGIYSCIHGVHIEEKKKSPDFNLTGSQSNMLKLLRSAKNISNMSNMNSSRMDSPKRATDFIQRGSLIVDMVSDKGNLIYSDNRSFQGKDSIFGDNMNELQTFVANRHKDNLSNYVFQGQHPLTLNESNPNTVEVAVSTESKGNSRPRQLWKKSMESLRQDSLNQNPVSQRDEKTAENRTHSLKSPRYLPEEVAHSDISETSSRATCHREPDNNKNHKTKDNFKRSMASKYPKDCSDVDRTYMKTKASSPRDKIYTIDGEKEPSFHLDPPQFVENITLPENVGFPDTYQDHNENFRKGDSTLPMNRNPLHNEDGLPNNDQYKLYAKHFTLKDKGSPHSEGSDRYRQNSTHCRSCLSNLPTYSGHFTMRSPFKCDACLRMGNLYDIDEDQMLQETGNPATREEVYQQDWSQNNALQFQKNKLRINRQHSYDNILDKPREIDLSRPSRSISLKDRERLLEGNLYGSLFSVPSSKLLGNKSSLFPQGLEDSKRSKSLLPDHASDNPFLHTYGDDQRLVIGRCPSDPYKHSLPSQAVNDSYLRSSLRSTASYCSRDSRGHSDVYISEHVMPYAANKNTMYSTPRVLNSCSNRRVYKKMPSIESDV
# [4] = target: T3, NMDAR (GluN1/GluN2A) in transiently transfected HEK cells; assay: as above; assay type: cell-based; conditions: rapid application of 1 mM Glutamate for 1 sec; −60 mV
# Protocol: as §1
# HEK-293 cells (CRL 1573, ATCC; hereafter HEK cells) and a stable GABAAR-expressing cell line were cultured in DMEM (Cat #10566016, ThermoFisher Scientific) supplemented with 10% fetal bovine serum (FBS), 10 U/ml penicillin, and 10 lag/ml streptomycin and maintained at 5% CO2 in a 37° C. incubator. For use on the electrophysiology rig, heterologous cells were plated on poly-D-Lysine (PDL) coated glass coverslips (0.1-0.5 mg/mL, Warner Instruments). Transiently transfected recombinant receptors were expressed from complementary DNA (cDNA) encoding rat GluN1-1a (hereafter GluN1, U08261) and GluN2A (D13211). Calcium phosphate was used to transiently transfect HEK cells in a 24-well plate with 500 ng of cDNA at a ratio of 1:1:5 (GluN1:GluN2A:GFP). Four hours after transfection, NMDAR antagonists D,L-2amino-5-phosphonovalerate (200 μM, DL-APV) and 7-chlorokynurenic acid (200 μM) were added to the culture medium to decrease the cytotoxic effect of NMDAR expression.
# as §3, §4
# A series of pharmacology experiments were performed on GABAAR and NMDARs where rapid agonist application was applied to excised outside-out patches to assess patcherBotPharma performance on the minimum processes required in an experiment, described in more detail in Table 1).
# [5] = 1 mM GABA for 0.5 sec, propofol-free GABA Control, concentration set 1
# [6] = 1 mM GABA for 0.5 sec, propofol-free GABA Control, concentration set 2
# [7] = 0.5 μM PRO, 1 mM GABA for 0.5 sec, set 1
# [8] = 1 μM PRO, 1 mM GABA for 0.5 sec, set 2
# [9] = 2 μM PRO, 1 mM GABA for 0.5 sec, set 1
# [10] = 5 μM PRO, 1 mM GABA for 0.5 sec, set 2
# [11] = 10 μM PRO, 1 mM GABA for 0.5 sec, set 1
# [12] = 20 μM PRO, 1 mM GABA for 0.5 sec, set 2
# [13] = 50 μM PRO, 1 mM GABA for 0.5 sec, set 1
# [14] = 100 μM PRO, 1 mM GABA for 0.5 sec, set 2
smiles,measurement,setting,value
NCCCC(=O)O [GABA],Deactivation Tau,[1]; −40 mV,216 ± 29 ms
same,Desensitization Extent (SS/Peak %),[1]; −40 mV,26.4 ± 1.8%
same,Desensitization Tau,[1]; −40 mV,681 ± 130 ms
same,Response Peak Amplitude,[1]; −40 mV,586 ± 150 pA
same,Response Steady State Amplitude,[1]; −40 mV,170 ± 54 pA
same,Deactivation Tau,[1]; −60 mV,133 ± 6 ms
same,Desensitization Extent (SS/Peak %),[1]; −60 mV,24.8 ± 1.1%
same,Desensitization Tau,[1]; −60 mV,965 ± 298 ms
same,Response Peak Amplitude,[1]; −60 mV,173 ± 48 pA
same,Deactivation Tau,[2]; [5],129 ± 11 ms
same,Desensitization Extent (SS/Peak %),[2]; [5],39.3 ± 2.0%
same,Response Peak Amplitude,[2]; [5],133 ± 36 pA
same,Response Steady State Amplitude,[2]; [5],51.1 ± 12.3 pA
same,Deactivation Tau,[2]; [6],130 ± 27 ms
same,Desensitization Extent (SS/Peak %),[2]; [6],31.8 ± 7.7%
same,Response Peak Amplitude,[2]; [6],93.6 ± 6.8 pA
same,Response Steady State Amplitude,[2]; [6],30.5 ± 8.1 pA
"N[C@@H](CCC(=O)O)C(=O)O [Glutamate, glutamate]",Deactivation Tau,[3],71.9 ± 11.0 ms
same,Desensitization Extent (SS/Peak %),[3],34.2 ± 6.4%
same,Desensitization Tau,[3],388 ± 75 ms
same,Response Peak Amplitude,[3],271 ± 104 pA
same,Response Steady State Amplitude,[3],130 ± 68 pA
same,Deactivation Tau,[4],81.3 ± 18.4 ms
same,Desensitization Extent (SS/Peak %),[4],54.8 ± 6.9%
same,Desensitization Tau,[4],984 ± 192 ms
same,Response Peak Amplitude,[4],326 ± 180 pA
same,Response Steady State Amplitude,[4],215 ± 139 pA
CC(C)c1cccc(C(C)C)c1O [propofol],Deactivation Tau,[2],143 ± 25 ms and 129 ± 12 ms
same,Desensitization Extent (SS/Peak %),[2],41.8 ± 1.7% and 25.2 ± 13.5%
same,EC50,[2],11.8 ± 4.6 µM
same,Deactivation Tau,[2]; [7],116 ± 13 ms
same,Desensitization Extent (SS/Peak %),[2]; [7],39.6 ± 1.3%
same,Response Peak Amplitude,[2]; [7],100 ± 20 pA
same,Response Steady State Amplitude,[2]; [7],40.4 ± 8.9 pA
same,Deactivation Tau,[2]; [8],110 ± 15 ms
same,Desensitization Extent (SS/Peak %),[2]; [8],34.9 ± 6.7%
same,Response Peak Amplitude,[2]; [8],72.2 ± 18.0 pA
same,Response Steady State Amplitude,[2]; [8],24.2 ± 6.6 pA
same,Deactivation Tau,[2]; [9],128 ± 13 ms
same,Desensitization Extent (SS/Peak %),[2]; [9],40.0 ± 1.7%
same,Response Peak Amplitude,[2]; [9],109 ± 32 pA
same,Response Steady State Amplitude,[2]; [9],45.6 ± 14.9 pA
same,Deactivation Tau,[2]; [10],198 ± 29 ms
same,Desensitization Extent (SS/Peak %),[2]; [10],30.0 ± 5.1%
same,Response Peak Amplitude,[2]; [10],37.8 ± 9.1 pA
same,Response Steady State Amplitude,[2]; [10],11.1 ± 2.4 pA
same,Deactivation Tau,[2]; [11],208 ± 20 ms
same,Desensitization Extent (SS/Peak %),[2]; [11],43.1 ± 2.2%
same,Response Peak Amplitude,[2]; [11],96.0 ± 25.2 pA
same,Response Steady State Amplitude,[2]; [11],42.1 ± 11.6 pA
same,Deactivation Tau,[2]; [12],328 ± 53 ms
same,Desensitization Extent (SS/Peak %),[2]; [12],25.2 ± 6.6%
same,Response Peak Amplitude,[2]; [12],21.5 ± 4.6 pA
same,Response Steady State Amplitude,[2]; [12],6.1 ± 2.2 pA
same,Deactivation Tau,[2]; [13],331 ± 21 ms
same,Desensitization Extent (SS/Peak %),[2]; [13],33.8 ± 2.7%
same,Response Peak Amplitude,[2]; [13],63.9 ± 17.8 pA
same,Response Steady State Amplitude,[2]; [13],23.5 ± 7.4 pA
same,Deactivation Tau,[2]; [14],415 ± 226 ms
same,Response Peak Amplitude,[2]; [14],8.9 ± 1.2 pA
same,Response Steady State Amplitude,[2]; [14],5.8 ± 7.5 pA
